Molecular target: T1, BlNagZ (Bacillus licheniformis, UniProt Q65P58)
T1 construct: gene ybbD; pET26b, PelB signal peptide (excised on secretion) fused to ORF amplified from its start codon; His-tag purified; E. coli BL21(DE3) supernatant
Experiment: p-nitrophenol release, absorbance […] nm
Type: biochemical
Conditions: substrate of the Km not given, taken from the standard assay; pH 5.5, 60 °C (standard assay), 50 mM phosphate; read-out: Km (μ mol/L)

T1 sequence (Q65P58 entry or part of it): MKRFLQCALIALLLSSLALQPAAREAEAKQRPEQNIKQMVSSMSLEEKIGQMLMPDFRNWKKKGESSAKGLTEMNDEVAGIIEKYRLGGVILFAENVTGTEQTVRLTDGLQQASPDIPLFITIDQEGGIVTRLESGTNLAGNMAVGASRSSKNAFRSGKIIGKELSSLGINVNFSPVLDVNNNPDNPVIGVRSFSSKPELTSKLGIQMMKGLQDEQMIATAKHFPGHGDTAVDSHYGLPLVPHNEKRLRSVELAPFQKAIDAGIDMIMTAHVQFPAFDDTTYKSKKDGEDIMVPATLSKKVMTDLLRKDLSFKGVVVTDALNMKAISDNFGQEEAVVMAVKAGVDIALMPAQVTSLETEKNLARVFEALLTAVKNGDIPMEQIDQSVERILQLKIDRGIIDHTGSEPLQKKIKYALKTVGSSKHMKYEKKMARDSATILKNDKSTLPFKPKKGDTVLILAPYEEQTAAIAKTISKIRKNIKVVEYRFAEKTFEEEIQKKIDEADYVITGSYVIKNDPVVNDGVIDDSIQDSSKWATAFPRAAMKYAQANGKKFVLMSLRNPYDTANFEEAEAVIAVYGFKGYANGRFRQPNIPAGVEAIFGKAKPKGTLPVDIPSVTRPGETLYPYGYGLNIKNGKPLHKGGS

## CC(=O)N[C@H]1[C@H](Oc2ccc([N+](=O)[O-])cc2)O[C@H](CO)[C@@H](O)[C@@H]1O [pNP-β-D-GlcNAc]
  Km: 0.000932 mol/L
